Laboratory results as given in US20260166016A1, “GPR139 RECEPTOR AGONIST, PREPARATION METHOD THEREFOR, AND APPLICATION THEREOF” (NEUBO APPTECH CO., LTD., priority 2022, published 2026).

Key:
mice in Forced Swim Test = assay: Mouse Forced Swim Test; format: in vivo; conditions: male CD1 (ICR) mice; i.p. 2.5 mg/mL solution at 0.1 mL/10 g; test 10 minutes after injection; FIG. 3
Protocol: Mouse strain: Male Crl: CD1 (ICR) mice; Weight: 35-40 g; Quantity: 16 pieces
Group 1, placebo group: 8 mice, 4 mice per cage;
Group 2, NRB181 group: 8 mice, 4 mice per cage.
20.3.1 Preparation of placebo before experiment: 10% DMSO+saline.
20.3.2 Preparation of compound NRB181 before experiment: 10 mg of NRB181 was weighed and added to 4 mL of placebo, mixed well.
20.3.4 On the morning of the experimental day, all mice were weighed and then evenly divided into each group based on their weight, with 8 mice per group, for a total of 16 mice.
20.3.5 The mice were transferred to the behavioral laboratory and allowed to adapt for 3 hours.
20.3.6 Drug injection: mice of Group 1 received intraperitoneal injection of placebo at a dose of 0.1 mL/10 g; after Forced Swim Test of the mice in Group 1, mice in Group 2 were intraperitoneally injected with compound NRB181 at a dose of 0.1 mL/10 g.
Mice of Group 1 underwent Forced Swim Test in sequence 10 minutes after injection. The mice were placed in a glass jar (diameter 10 cm, height 25 cm; water depth 15 cm, water temperature 23° C.) and swam for 6 minutes. The first 2 minutes were the adaptation period, and the last 4 minutes were the experimental period; The software records the immobility time, swimming time, and climbing time of mice within 4 minutes. […]

acutely restrained mice = assay: Acute restraint mouse stress model, plasma corticosterone (ELISA); format: in vivo; conditions: male C57BL/6J mice, gavage 1, 5, 25 mg/kg, 30 minutes after administration and 3 hours of acute restraint, dose-dependent, FIG. 1
Protocol: Mouse: Male C57BL/6J; 8 weeks old; Weight: 20-25 g; Quantity: 40 pieces
Group 1, acute restraint+placebo group, 10 mice; the mice were divided into 2 cages, 5 mice per cage. On the morning of the day of the experiment, the mice in this group were subjected to acute restraint, during which they were fasted and deprived of water.
Group 2, acute restraint+low-dose of compound NRB181 group (1 mg/kg), 10 mice; the mice were divided into 2 cages, 5 mice per cage. On the morning of the day of the experiment, the mice in this group were subjected to acute restraint, during which they were fasted and deprived of water.
Group 3, acute restraint+moderate-dose of compound NRB181 group (5 mg/kg), 10 mice; the mice were divided into 2 cages, 5 mice per cage. On the morning of the day of the experiment, the mice in this group were subjected to acute restraint, during which they were fasted and deprived of water.
Group 4, acute restraint+high-dose of compound NRB181 group (25 mg/kg), 10 mice; the mice were divided into 2 cages, 5 mice per cage. On the morning of the day of the experiment, the mice in this group were subjected to acute restraint, during which they were fasted and deprived of water.
18.3.1 On the day before the experiment, a placebo was prepared: 1 mL of 100% DMSO and 9 mL of formula x solution was added. […]

## C[C@H](NC(=O)CNC(=O)c1cc(Cl)ccn1)c1c(F)cccc1F [NRB181]
Mice in Forced Swim Test
  time of despair (immobility time) in Forced Swim Test: significantly reduce
Acutely restrained mice
  expression level of corticosterone: significantly reduced
